From paper PMC8596578, “Structural Basis for The Recognition of Deaminated Nucleobases by An Archaeal DNA Polymerase” (Chembiochem, 2021)

Biological target: T1, KOD DNA polymerase (exonuclease deficient mutant D141A, E143A) (Thermococcus kodakarensis, UniProt P77933, D141A/E143A)
T1 construct: gene pol; exonuclease-deficient polymerase, codon-optimized, pET24a (NdeI/NotI), E. coli BL21(DE3); intein-free mature protein
Assay: X-ray crystal structure of closed ternary complex
Format: binding
Conditions: primer/template DNA (21 nt template, with canonical bases in KOD-21nt or uracil at +6 in KOD-U); polymerase active site, Mg2+ and Mn2+; pH 7.5 (KOD-21nt) or 6.5 (KOD-U)

## Nc1ncnc2c1ncn2[C@H]1C[C@H](O)[C@@H](COP(=O)(O)OP(=O)(O)OP(=O)(O)O)O1 [dATP]
  X-ray crystal structure of closed ternary complex: closed ternary complex, with dATP and three metal ions
